From patent US9120780B2, “Indole or indazole derivative or salt thereof” (TAIHO PHARMACEUTICAL CO., LTD., priority 2011, dated 2015)

How the values were obtained:
[1] = test system: Human gastric cancer cells (NCI-N87); assay: Antitumor effect in subcutaneous transplantation model of human gastric cancer cell line NCI-N87; assay type: in vivo, nude mice; conditions: for anti-tumor effect versus comparative compounds 6 and 7 at the same dose (RTV on day 15): 2 mg/kg/day oral for all compounds, Student-t test; for inhibition of tumor growth (relative tumor volume, FIG. 1): 2 mg/kg/day orally once per day for 14 days, nude mice, NCI-N87; for anti-tumor effect versus comparative compounds 6 and 7 at increased dose (RTV): Examples at 2 mg/kg/day oral, comparative compounds 6 and 7 at 10 mg/kg/day
Experimental: Human gastric cancer cells (NCI-N87) (obtained from ATCC) were subcutaneously transplanted in nude mice, and at the time when the tumor volume of the nude mice in which the cancer cells had been survived became approximately 140 to 210 mm^3, stratified randomization was performed so that the average tumor volume of each group (6 animals were assigned to one group (grouping: on day 0)) became uniform. The compounds 1, 6, and 9 of the present invention and the comparative compounds 6 (the compound of Example 21 in WO 2010/106290) and 7 (the compound of Example 1 in WO 2010/106290) were orally administered daily once per day from day 1 for 14 days. Note that the comparative compounds were synthesized according to the method described in WO 2010/106290 (Table 22).
The doses of 2 mg/kg/day and 10 mg/kg/day were used for the comparative compounds 6 and 7, and the dose of 2 mg/kg/day was used for the compounds of Examples of 1, 6, and 9 of the present invention.
In order to compare the transition over time of the tumor growth in the administration of each test compound, the relative tumor volume (RTV) was calculated according to the following equation when the tumor volume on the grouping day was defined as 1 for the growth rate of tumor, and the transition of the average value of the RTV of each individual was shown in FIG. 1. RTV=(Tumor volume on tumor volume measurement day)/(Tumor volume when grouped) (Mathematical Formula 1)

[2] = molecular target: human HSP90 alpha protein (N-terminal, amino acids 2-236) (Homo sapiens (Human), UniProt P07900); assay: Measurement of HSP90-binding activity (AlphaScreen competitive assay, biotin-labeled geldanamycin); conditions: inhibition of biotin-labeled geldanamycin binding to purified HSP90; read-out: HSP-binding activity IC50
Experimental: First, a solution of purified HSP90 was prepared as follows. […] The pET-HSP90N was introduced into Escherichia coli cells (BL21 (DE3), Stratagene Inc.), and then the Escherichia coli cells were cultured in the presence of 0.5 mM isopropyl-beta-D-thiogalactopyranoside (Sigma-Aldrich Corp.) at 37° C. for 4 hours. The Escherichia coli cells were collected, suspended in a lysis buffer (50 mM Tris-HCl (pH 7.5), 200 mM NaCl), and sonicated. The sonicated cell solution was centrifuged (40,000×g, 20 minutes) to obtain supernatant as a crude extract. The crude extract was fractionated by Ni Sepharose High Performance (GE Healthcare Japan Corporation) chromatography and HiLoad 26/60 Superdex 75 pg (GE Healthcare Japan Corporation), and the fraction in which HSP90 protein was concentrated was prepared so as to be a 50 mM Tris-HCl (pH 7.5)/20% glycerol solution as a purified HSP90 solution. The purified HSP90 solution was divided and stored at −80° C. until use.
The HSP90-binding activity was measured by an AlphaScreen competitive assay system. […] After reaction at room temperature for 2 hours, biotin-labeled geldanamycin was added to each reaction solution in an amount of 40 nM, followed by reaction for further 1 hour. […] After reaction in a dark place at room temperature for 1 hour, the fluorescence intensity in each well was measured with a multilabel plate reader, EnVision (Perkin Elmer, Inc.). The inhibition rate (%) of biotin-labeled geldanamycin binding by a compound of the present invention was determined by the following equation using the fluorescence signal of a test substance-free group (control) as a control. […] Inhibition rate (%)=(C−T)/C×100 T: signal in a well to which a test substance was added C: signal in a well to which no test substance was added

SK-BR-3 cells = assay: Measurement of cell growth inhibition (crystal violet staining); assay type: cell-based; conditions: Homo sapiens, 72 hours culture with test substance
Experimental: Cell growth was measured by a crystal violet staining method. […] The cells were cultured in a 5% CO2 incubator at 37° C. for 24 hours, and then test substances were added to the plate, followed by culturing for further 72 hours. […] The plate was left to stand at room temperature for 20 minutes for staining the cells. The plate was washed with water and dried, and 100 μL of a mixed solution of 0.05 M NaH2PO4 and ethanol (mixture in equal amounts) was added to each well. The absorbance at 540 nm was measured with a microplate reader (MTP-450, Corona Electric Co., Ltd.) as an index of the number of cells in each well. The inhibition rate (%) of cell growth by a compound of the present invention was determined by the following equation using the absorbance of a drug-untreated group (control) as a control. […] Inhibition rate (%)=(C−T)/C×100 T: absorbance in a well to which a test substance was added C: absorbance in a well to which no test substance was added

Row | Compound | IC50 [2] [nM] | IC50 (SK-BR-3 cells) [nM] | anti-tumor effect versus comparative compounds 6 and 7 at the same dose (RTV on day 15) [1] | inhibition of tumor growth (relative tumor volume, FIG. 1) [1] | anti-tumor effect versus comparative compounds 6 and 7 at increased dose (RTV) [1]
1 | CC(C)c1nn(-c2ccc(C(N)=O)c(NC(C)(C)C)c2)c2cccc(-n3cnc(-c4cccnc4)c3)c12 [Example 1, 2-(Tert-butylamino)-4-(3-isopropyl-4-(4-(pyridin-3-yl)-1H-imidazol-1-yl)-1H-indazol-1-yl)benzamide] | 170 | 20 | significantly stronger anti-tumor effects than the comparative compounds 6 and 7 | inhibited the tumor growth within one week from the start of the administration | significantly stronger anti-tumor effect than any of the comparative compounds 6 and 7
2 | CCc1cc(C(N)=O)ccc1-n1nc(C(C)C)c2c(-n3cnc(-c4cnn(C)c4)c3)cccc21 [Example 6, 3-Ethyl-4-(3-isopropyl-4-(4-(1-methyl-1H-pyrazol-4-yl)-1H-imidazol-1-yl)-1H-indazol-1-yl)benzamide] | 100 | 30 | significantly stronger anti-tumor effects than the comparative compounds 6 and 7 | inhibited the tumor growth within one week from the start of the administration | significantly stronger anti-tumor effect than any of the comparative compounds 6 and 7
3 | Cn1cc(-c2cn(-c3cccc4c3c(C(F)(F)F)nn4-c3ccc(C(N)=O)cc3N)cn2)cn1 [Example 24, 3-Amino-4-(4-(4-(1-methyl-1H-pyrazol-4-yl)-1H-imidazol-1-yl)-3-(trifluoromethyl)-1H-indazol-1-yl)benzamide] | 80 | 130 | – | – | –
4 | CC(C)c1nn(-c2ccc(C(N)=O)cc2NC2CCC2)c2cccc(-n3cnc(-c4cccnc4)c3)c12 [Example 11, 3-(Cyclobutylamino)-4-(3-isopropyl-4-(4-(pyridin-3-yl)-1H-imidazol-1-yl)-1H-indazol-1-yl)benzamide] | 300 | 80 | – | – | –

The remaining compounds from weak to strong by IC50 [2], led by results:

Row | IC50 [2] [nM] | IC50 (SK-BR-3 cells) [nM] | Compound | anti-tumor effect versus comparative compounds 6 and 7 at the same dose (RTV on day 15) [1] | inhibition of tumor growth (relative tumor volume, FIG. 1) [1] | anti-tumor effect versus comparative compounds 6 and 7 at increased dose (RTV) [1]
5 | 420 | 20 | CC(C)c1cn(-c2ccc(C(N)=O)c(NC(C)(C)C)c2)c2cccc(-n3cnc(-c4cnn(C)c4)c3)c12 [Example 52, 2-(Tert-butylamino)-4-{3-isopropyl-4-(4-(1-methyl-1H-pyrazolo-4-yl)-1H-imidazolo-1-yl)-1H-indol-1-yl}benzamide] | – | – | –
6 | 270 | 10 | Cn1cc(-c2cn(-c3cccc4c3c(C(F)(F)F)nn4-c3ccc(C(N)=O)c(NC(C)(C)C)c3)cn2)cn1 [Example 14, 2-(Tert-butylamino)-4-(4-(4-(1-methyl-1H-pyrazol-4-yl)-1H-imidazol-1-yl)-3-(trifluoromethyl)-1H-indazol-1-yl)benzamide] | – | – | –
7 | 260 | 10 | CC(C)c1nn(-c2ccc(C(N)=O)c(NC(C)(C)C)c2)c2cccc(-n3cnc(-c4cnn(C)c4)c3)c12 [Example 9, 2-(Tert-butylamino)-4-(3-isopropyl-4-(4-(1-methyl-1H-pyrazol-4-yl)-1H-imidazol-1-yl)-1H-indazol-1-yl)benzamide] | significantly stronger anti-tumor effects than the comparative compounds 6 and 7 | inhibited the tumor growth within one week from the start of the administration | significantly stronger anti-tumor effect than any of the comparative compounds 6 and 7
